The nature of data set [1]: Protonation constants of ligands by pH-potentiometry. It counts as physicochemical. The conditions noted are these: 0.15 M NaNO3, 25°C. As for the experimental part: For determining the protonation constants of H6TRAP and H3NOTA ligands three parallel pH-potentiometric titration were made with 0.2 M NaOH in 0.002 M ligand solutions.
For pH measurements and titrations, a Metrohm 785 DMP Titrino titration workstation and a Metrohm-6.0233.100 combined electrode were used. Equilibrium measurements were carried out at a constant ionic strength (0.15 M NaNO3 or NaCl) in 6 mL samples at 25°C. Solutions were stirred and continuously purged with N2. Titrations were performed in a pH range of 1.7–12.0. KH-phthalate (pH = 4.005) and borax (pH = 9.177) buffers were used to calibrate the pH meter. For calculation of [H^+] from measured pH values, the method proposed by Irving et al. was used (Irving et al., [1967]). A 0.01 M HNO3 or HCl solution was titrated with the standardized NaOH solution in the presence of 0.15 M NaNO3 or NaCl. Differences between the measured (pHread) and calculated pH (–log[H^+]) values were used to obtain the equilibrium H^+ concentration from the pH values, measured in the titration experiments. For equilibrium calculations, the stoichiometric water ionic product (pKw) is also needed to calculate [H^+] values in basic conditions. The VNaOH–pHread data pairs of the HNO3–NaOH or HCl–NaOH titration obtained in the pH range 10.5–12.0 have been used to calculate the pKw value (pKw = 13.84). For calculation of the equilibrium constants, the program PSEQUAD (Zekany and Nagypal, [1985]) was used. The standard deviation (SD) of the equilibrium parameters calculated by the program PSEQUAD is defined by Equation (1)
Protonation equilibria of the TRAP^6−, NOTA^3− and Bha^− ligands were studied by pH-potentiometry. The protonation constants (log KiH ) of ligands defined by Equation (3) are listed in Table 1 (standard deviations are shown in parentheses). The charges of ligands and complexes will be indicated when it is necessary.
(3) KiH=[HiL]/[Hi−1L][H^+] i=0,1,2…6

Data set [2] can be described thus: Stability and protonation constants of Fe^III complexes (pH-potentiometry, spectrophotometry, competition with Bha^−). In kind it is physicochemical. Particulars: 0.15 M NaNO3, 25°C. The method, then: Stability constant of [Fe(Bha)]^2+ complex was determined by spectrophotometry, studying the Fe^III-HBha systems at the absorption band of Fe^III-complex over the wavelength range of 400–800 nm in two sets of experiments. Individual samples were prepared in the first series in which the concentrations of Fe^III and HBha was constant 0.2 and 2.0 mM, while that of the H^+ was varied between […] (eight samples, Figure S1). The H^+ concentration in the samples was adjusted by addition of calculated amounts of 2.0 M HNO3. The ionic strength was constant in the samples with [H^+] < 0.15 M ([H^+]+[Na^+] = 0.15 M). Samples were kept at 25°C for a week. Absorbance values were determined at 11 wavelengths (400, 415, 430, 445, 460, 475, 490, 505, 520, 535, and 550 nm). In the second set, spectrophotometric titrations were done with samples containing HBha ligand in 2.0 mM concentration, whereas the concentration of Fe^III was varied between 0.1–0.3 mM (Figures S2–S4). The pH of the samples was adjusted using concentrated NaOH and HNO3 solutions in the pH range 1.7–11.0 (0.15 M NaNO3 and 25°C). For calculation of the equilibrium constants, the best fit of the absorbance–pH data was obtained by assuming formation of [Fe(Bha)]^2+, [Fe(Bha)2]^+, [Fe(Bha)3], and [Fe(Bha)2(OH)2]^− species (Figure S5). The molar absorptivity of [Fe(Bha)]^2+, [Fe(Bha)2]^+, [Fe(Bha)3] and [Fe(Bha)2(OH)2]^− species were also determined at the same 11 wavelengths in these experiments (Figure S6).
The stability constant of the [Fe(TRAP)]^3− complex has been determined by spectrophotometry, using competition reactions between HTRAP^5− and Bha^− for Fe^III at pH = 10.0. Concentration of [Fe(TRAP)]^3− was 0.2 mM, while that of HBha was varied between 0.0 and 1.5 mM (6 samples). The samples were kept at 25°C for 2 weeks. Absorbance values of the Fe^III-HTRAP^5−-Bha^− systems were determined at 11 wavelengths (400, 415, 430, 445, 460, 475, 490, 505, 520, 535, and 550 nm). The molar absorptivities of [Fe(TRAP)]^3− and [Fe(TRAP)OH]^4− in equilibrium solutions were determined by recording the absorption spectra of 0.1, 0.2, and 0.3 mM solution of [Fe(TRAP)]^3− in the pH range 6.0–12.0. The molar absorptivity of [Fe(Bha)2(OH)2]^− species was determined in the separate experiments. Absorbance and pH values were determined in the samples after equilibration (the time needed to reach the equilibria was determined by spectrophotometry). Spectrophotometric measurements were done using 1.0 cm cells with a Cary 1E spectrophotometer at 25°C. Protonation constants of the Fe^III complex formed with TRAP^6− were determined by direct pH-potentiometric titration at 1:1 metal to ligand ratios (both concentrations were 0.002 M). For calculation of the logKMHiL values, the mL base–pH data used were measured in the pH range 1.7 −12.0.
For pH measurements and titrations, a Metrohm 785 DMP Titrino titration workstation and a Metrohm-6.0233.100 combined electrode were used. Equilibrium measurements were carried out at a constant ionic strength (0.15 M NaNO3 or NaCl) in 6 mL samples at 25°C. Solutions were stirred and continuously purged with N2. Titrations were performed in a pH range of 1.7–12.0. […] For calculation of [H^+] from measured pH values, the method proposed by Irving et al. was used (Irving et al., [1967]). […] Differences between the measured (pHread) and calculated pH (–log[H^+]) values were used to obtain the equilibrium H^+ concentration from the pH values, measured in the titration experiments. […]

The conditions of data set [3]: 25°C, cited from earlier work.
The conditions of data set [4]: Fe^III, 25°C, cited from earlier work.
For data set [5] the following is noted: cited from earlier work; for log β3OH hydrolysis constant: M(OH)3, ref Baes and Mesmer; for log β3OH hydrolysis constant / log β2OH hydrolysis constant / log β1OH hydrolysis constant: [1976]; for log β2OH hydrolysis constant: [M(OH)2]^+; for log β1OH hydrolysis constant: [M(OH)]^2+.
For data set [6] the following is noted: 25°C, cited from earlier work. This is another data set of the same source.
Details of data set [7]: method as in Brucher and Sherry, [1990]. The conditions noted are these: 25°C, ref Brucher and Sherry, [1990]; cited from earlier work.
Details of data set [8]: method as in Notni et al., [2010]; Baranyai et al., [2015]. The conditions noted are these: Zn^II, ref Notni et al., [2010]; Baranyai et al., [2015]; cited from earlier work.
The mark [9] stands for this setting: 0.2 M KCl, ref Farkas et al., [1998].
Where [10] appears, read: ref Baes and Mesmer, listed as Fe^3+.
Setting [11] is: 0.1 M KCl, ref Clarke and Martell, [1991].
Setting [12] is: 0.1 M Me4NCl, ref Drahos et al., [2011].
The mark [13] stands for this setting: 0.15 M NaCl, ref Baranyai et al., [2015].
[14] abbreviates: Ga^III, 0.1 M Me4NCl, ref Simecek et al., [2012].

Read-outs that look alike come from different tables or passages of the source. Marks after values point to notes of the source that are not given here.

For `O=C(NO)c1ccccc1` [Bha^−, benzhydroxamic acid], the “log K1H protonation constant” value in data set [1] was 8.53(3). In data set [2], the “logK ML2” value is 9.03(2), the “logK ML3” value was 7.41(3), the “logK ML stability constant” value was 10.80(2) and the “logβFeL2(OH)2” value is recorded as 6.68(5). Besides, the “log K1H protonation constant” value in data set [3] (setting [9]) is on record as 8.69. In data set [4] (setting [9]), the “logK ML2” value was 10.12, the “logK ML3” value was 7.60 and the “logK ML stability constant” value is reported as 11.08.
As for `[Fe+3]` [Fe^III], the figures for the “log β3OH hydrolysis constant” value in data set [5] and in data set [5] (listed as Fe^3+) were −12.0 and “–12.0”, respectively. Moreover, the “logβ4^OH hydrolysis constant” value in data set [5] ([Fe(OH)4]^-, ref Baes and Mesmer, 1976) is listed as “–21.6”. In addition, the “log β2OH hydrolysis constant” value in data set [5] (ref Baes and Mesmer) was −5.67; in data set [5] (setting [10]), “–5.67”. Besides, the “log β1OH hydrolysis constant” value in data set [5] (ref Baes and Mesmer) is −2.19; in data set [5] (setting [10]) it was “–2.19”.
Turning to `[Ga+3]` [Ga^III], the “log β3OH hydrolysis constant” value in data set [5] is given as −8.2. Further, in data set [5] (ref Baes and Mesmer), the “log β2OH hydrolysis constant” value was −5.92 and the “log β1OH hydrolysis constant” value is recorded as −2.97.
With `O=C(O)CN1CCN(CC(=O)O)CCN(CC(=O)O)CC1` [NOTA^3−, 1,4,7-triazacyclononane-1,4,7-triacetic acid], the “log K1H protonation constant” value is on record as 11.94(2) in data set [1], 11.98 in data set [3] (setting [11]), 13.17 in data set [3] (setting [12]) and 12.16 in data set [3] (setting [13]). The “log K2H protonation constant” value in data set [1] is 5.71(3); in data set [3] (setting [11]), 5.65; in data set [3] (setting [12]), 5.74; in data set [3] (setting [13]) it was 5.75. Moreover, the “log K3H protonation constant” value in data set [1] is 3.14(3); in data set [3] (setting [11]) it was 3.18; in data set [3] (setting [12]), 3.22; in data set [3] (setting [13]), 3.18. For the same molecule, the results for the “log K4H protonation constant” value in data set [1], in data set [3] (setting [12]) and in data set [3] (setting [13]) were 1.60(2), 1.96 and 1.90, respectively. For the same molecule, the “Σlog KiH total ligand basicity” value in data set [1] (for TRAP^6− log K3H, K4H, K5H not considered) was 22.39; in data set [3] (setting [12]), 24.09; in data set [3] (0.15 M NaCl, for TRAP^6− log K3H, K4H, K5H not considered, ref Baranyai et al., [2015]), 22.99. In addition, the results for the “logK M(L)OH” value in data set [2] and in data set [6] (setting [14]) were 9.12(4)^e and 9.83, respectively. For the same molecule, in data set [6] (setting [14]), the “logK MHL protonation constant of complex” value was 0.9. In addition, the “logK ML stability constant” value is given as 29.60 in data set [6] (setting [14]) and 28.3 in data set [4] (setting [11]).
As to `O=C([O-])CN1CCN(CC(=O)[O-])CCN(CC(=O)[O-])CC1.[Ce+3]` [[Ce(NOTA)]], the “kOH formation rate constant” value in data set [7] is 6.3e+07 M⁻¹ s⁻¹.
Take `O=C([O-])CN1CCN(CC(=O)[O-])CCN(CC(=O)[O-])CC1.[Er+3]` [[Er(NOTA)]]: the “kOH formation rate constant” value in data set [7] is 5.5e+07 M⁻¹ s⁻¹.
With `O=C([O-])CN(CCN(CC(=O)[O-])Cc1ccccc1[O-])Cc1ccccc1[O-].[Ga+3]` [[Ga(HBED)]^−], the “logKGa(HBED) stability constant” value in data set [6] (0.1 M KCl, ref Ma et al., [1994]) is listed as 38.51.
Turning to `O=C([O-])CN1CCN(CC(=O)[O-])CCN(CC(=O)[O-])CC1.[Gd+3]` [[Gd(NOTA)]], the “kOH formation rate constant” value in data set [7] is 7.1e+07 M⁻¹ s⁻¹.
Consider `O=C([O-])CCP(=O)(O)CN1CCN(CP(=O)(O)CCC(=O)[O-])CCN(CP(=O)(O)CCC(=O)O)CC1.[Zn+2]` [[Zn(TRAP)]^4−], for which the logKML stability constant in data set [8] is listed as 16.07.

These data come from publication PMC5974124, “Equilibrium Thermodynamics, Formation, and Dissociation Kinetics of Trivalent Iron and Gallium Complexes of Triazacyclononane-Triphosphinate (TRAP) Chelators: Unraveling the Foundations of Highly Selective Ga-68 Labeling” (Frontiers in Chemistry, 2018).
